Values joined by “and” are separate entries in the source; they are usually repeats but may differ in a detail not shown here. Equal values may be shown once. Inconclusive results and toxic doses are left out. The calls were made as follows: active = survival T/C of 150% or more; inactive = T/C below 125% in these data.
System: CD2F1 mice, L1210 leukemia ip, survival T/C
Experiment: NCI In Vivo Anticancer Drug Screen. Data for tumor model L1210 Leukemia (intraperitoneal) in CD2F1 (CDF1) mice
Conditions: higher = longer survival
Method in brief: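 Mice carrying a transplanted tumor received test compound or vehicle alone. The value is the measurement in the treated group divided by that in the vehicle-treated control group.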

[1] = endpoint: mean survival time, dose: 12.5 mg/kg/injection, schedule: Q04DX003 (ip), vehicle: saline with Tween-80
[2] = endpoint: mean survival time, dose: 25.0 mg/kg/injection, schedule: Q04DX003 (ip), vehicle: saline with Tween-80
[3] = endpoint: mean survival time, dose: 12.5 mg/kg/injection, schedule: Q01DX005 (ip), vehicle: water
[4] = endpoint: mean survival time, dose: 25.0 mg/kg/injection, schedule: Q01DX005 (ip), vehicle: water
[5] = endpoint: mean survival time, dose: 50.0 mg/kg/injection, schedule: Q01DX005 (ip), vehicle: water
[6] = endpoint: mean survival time, dose: 100.0 mg/kg/injection, schedule: Q01DX005 (ip), vehicle: water
[7] = endpoint: mean survival time, dose: 200.0 mg/kg/injection, schedule: Q01DX005 (ip), vehicle: water
[8] = endpoint: mean survival time, dose: 100.0 mg/kg/injection, schedule: Q01DX009 (ip), vehicle: saline
[9] = endpoint: mean survival time, dose: 100.0 mg/kg/injection, schedule: Q01DX001 (ip), vehicle: saline
[10] = endpoint: mean survival time, dose: 150.0 mg/kg/injection, schedule: Q01DX001 (ip), vehicle: saline
[11] = endpoint: mean survival time, dose: 100.0 mg/kg/injection, schedule: Q01DX009 (ip), vehicle: saline with Tween-80
[12] = endpoint: mean survival time, dose: 200.0 mg/kg/injection, schedule: Q01DX009 (ip), vehicle: saline with Tween-80
[13] = endpoint: mean survival time, dose: 400.0 mg/kg/injection, schedule: Q01DX009 (ip), vehicle: saline with Tween-80
[14] = endpoint: mean survival time, dose: 100.0 mg/kg/injection, schedule: Q04DX003 (ip), vehicle: saline with Tween-80
[15] = endpoint: mean survival time, dose: 200.0 mg/kg/injection, schedule: Q04DX003 (ip), vehicle: saline with Tween-80
[16] = endpoint: mean survival time, dose: 400.0 mg/kg/injection, schedule: Q04DX003 (ip), vehicle: saline with Tween-80
[17] = endpoint: mean survival time, dose: 200.0 mg/kg/injection, schedule: Q01DX001 (ip), vehicle: saline
[18] = endpoint: mean survival time, dose: 400.0 mg/kg/injection, schedule: Q01DX001 (ip), vehicle: saline

Measured: T/C

C=COCCN1CCN(CCCN2c3ccccc3Sc3ccc(C(F)(F)F)cc32)CC1
inactive: [1] 113 % of control | [2] 113 % of control

[N-]=[N+]=NC1C(O)C(CO)OC1n1c(=O)[nH]c2c(N)ncnc21 (centres undefined)
inactive: [3] 94 % of control | [4] 99 % of control | [5] 97 % of control | [6] 97 % of control | [7] 97 % of control

CCN(CC)Cc1ccc(Nc2cc(C)nc(/N=C(\N)Nc3ccc(Cl)c(Cl)c3)n2)cc1
inactive: [1] 98 % of control | [2] 95 % of control

C(CCSC1=NCCN1)CCSC1=NCCN1
inactive: endpoint: mean survival time, dose: 25.0 mg/kg/injection, schedule: Q01DX009 (ip), vehicle: saline 97 % of control | endpoint: mean survival time, dose: 50.0 mg/kg/injection, schedule: Q01DX009 (ip), vehicle: saline 103 % of control | [8] 100 % of control

CN(N=O)C(=O)NC1C(CO)OC(n2ccc(=O)[nH]c2=O)C1O (centres undefined)
inactive: endpoint: mean survival time, dose: 13.0 mg/kg/injection, schedule: Q01DX001 (ip), vehicle: saline 105 % of control | endpoint: mean survival time, dose: 20.0 mg/kg/injection, schedule: Q01DX001 (ip), vehicle: saline 107 % of control | endpoint: mean survival time, dose: 30.0 mg/kg/injection, schedule: Q01DX001 (ip), vehicle: saline 110 % of control | endpoint: mean survival time, dose: 44.0 mg/kg/injection, schedule: Q01DX001 (ip), vehicle: saline 111 % of control | endpoint: mean survival time, dose: 67.0 mg/kg/injection, schedule: Q01DX001 (ip), vehicle: saline 107 % of control | [9] 122 % of control | [10] 121 % of control

Cc1ccccc1NC(=S)Nc1ccccn1
inactive: [11] 95 % of control | [12] 98 % of control | [13] 93 % of control

O=C(O)Cc1c(Cl)cccc1[N+](=O)[O-]
inactive: endpoint: mean survival time, dose: 100.0 mg/kg/injection, schedule: Q01DX001 (ip), vehicle: other 116 % of control | endpoint: mean survival time, dose: 200.0 mg/kg/injection, schedule: Q01DX001 (ip), vehicle: other 101 % of control | endpoint: mean survival time, dose: 400.0 mg/kg/injection, schedule: Q01DX001 (ip), vehicle: other 104 % of control

O=P1(N(CCCl)CCCl)OCCC(c2ccccc2)N1Cl (centres undefined)
inactive: endpoint: mean survival time, dose: 43.75 mg/kg/injection, schedule: Q01DX001 (ip), vehicle: distilled water + Tween-80 106 % of control | endpoint: mean survival time, dose: 87.5 mg/kg/injection, schedule: Q01DX001 (ip), vehicle: distilled water + Tween-80 103 % of control | endpoint: mean survival time, dose: 175.0 mg/kg/injection, schedule: Q01DX001 (ip), vehicle: distilled water + Tween-80 106 % of control | endpoint: mean survival time, dose: 350.0 mg/kg/injection, schedule: Q01DX001 (ip), vehicle: distilled water + Tween-80 110 % of control

CC1=NC2=Nc3cc[n+](C4OC(CO)C(O)C4O)c(=O)n3CC2=CN1C (centres undefined)
inactive: endpoint: median survival time, dose: 12.5 mg/kg/injection, schedule: Q01DX005 (ip), vehicle: water 107 % of control | endpoint: median survival time, dose: 25.0 mg/kg/injection, schedule: Q01DX005 (ip), vehicle: water 105 % of control | endpoint: median survival time, dose: 50.0 mg/kg/injection, schedule: Q01DX005 (ip), vehicle: water 105 % of control | endpoint: median survival time, dose: 100.0 mg/kg/injection, schedule: Q01DX005 (ip), vehicle: water 105 % of control and 107 % of control | endpoint: median survival time, dose: 200.0 mg/kg/injection, schedule: Q01DX005 (ip), vehicle: water 103 % of control and 105 % of control | endpoint: median survival time, dose: 400.0 mg/kg/injection, schedule: Q01DX005 (ip), vehicle: water 104 % of control

O=C(O)CNCP(=O)(O)O
inactive: [11] 95 % of control | [14] 105 % of control | [12] 93 % of control | [15] 102 % of control | [13] 89 % of control | [16] 100 % of control

CCOC(=O)C(=O)c1c[nH]c2ccccc12
inactive: endpoint: mean survival time, dose: 100.0 mg/kg/injection, schedule: Q01DX009 (ip), vehicle: saline sonified 89 % of control | endpoint: mean survival time, dose: 200.0 mg/kg/injection, schedule: Q01DX009 (ip), vehicle: saline sonified 95 % of control | endpoint: mean survival time, dose: 400.0 mg/kg/injection, schedule: Q01DX009 (ip), vehicle: saline sonified 94 % of control

Cc1cccc(Cl)c1NC(=O)C(C)C
inactive: endpoint: mean survival time, dose: 100.0 mg/kg/injection, schedule: Q04DX003 (ip), vehicle: other 94 % of control | endpoint: mean survival time, dose: 200.0 mg/kg/injection, schedule: Q04DX003 (ip), vehicle: other 91 % of control | endpoint: mean survival time, dose: 400.0 mg/kg/injection, schedule: Q04DX003 (ip), vehicle: other 87 % of control

O=C(O)c1ccccc1C(=O)c1ccc(Cl)cc1
inactive: [11] 100 % of control | [14] 94 % of control | [12] 110 % of control | [15] 97 % of control | [13] 108 % of control | [16] 95 % of control

CCC1Cc2c([nH]c(=O)n(-c3ccccc3)c2=O)O1 (centres undefined)
inactive: [9] 95 % of control | [17] 98 % of control | [18] 92 % of control

CNC(=O)c1ccccc1N=NN(C)C
inactive: endpoint: mean survival time, dose: 18.75 mg/kg/injection, schedule: Q01DX009 (ip), vehicle: Klucel (hydroxypropylcellulose) (HPC) 98 % of control and 103 % of control and 106 % of control | endpoint: mean survival time, dose: 37.5 mg/kg/injection, schedule: Q01DX009 (ip), vehicle: Klucel (hydroxypropylcellulose) (HPC) 122 % of control and 98 % of control and 105 % of control | endpoint: mean survival time, dose: 75.0 mg/kg/injection, schedule: Q01DX009 (ip), vehicle: Klucel (hydroxypropylcellulose) (HPC) 122 % of control

OCC1OC(c2nn(-c3ccccc3)[n+](-c3ccccc3)n2)C(O)C1O (centres undefined)
inactive: [3] 106 % of control | [4] 97 % of control | [5] 95 % of control | [6] 106 % of control | [7] 103 % of control

CCOC(=O)Nc1cc(NCc2ccccc2)c(N)c(N)n1
inactive: endpoint: mean survival time, dose: 100.0 mg/kg/injection, schedule: Q01DX001 (ip), vehicle: saline with Tween-80 103 % of control | endpoint: mean survival time, dose: 200.0 mg/kg/injection, schedule: Q01DX001 (ip), vehicle: saline with Tween-80 103 % of control

NC(Cc1ccc([N+](=O)[O-])cc1)C(=O)O (centres undefined)
inactive: [8] 96 % of control | endpoint: mean survival time, dose: 100.0 mg/kg/injection, schedule: Q04DX003 (ip), vehicle: saline 97 % of control | endpoint: mean survival time, dose: 200.0 mg/kg/injection, schedule: Q01DX009 (ip), vehicle: saline 98 % of control | endpoint: mean survival time, dose: 200.0 mg/kg/injection, schedule: Q04DX003 (ip), vehicle: saline 100 % of control | endpoint: mean survival time, dose: 400.0 mg/kg/injection, schedule: Q01DX009 (ip), vehicle: saline 94 % of control | endpoint: mean survival time, dose: 400.0 mg/kg/injection, schedule: Q04DX003 (ip), vehicle: saline 103 % of control

NC(=S)Nc1ccc(C23CCC(CC2)CC3)cc1
inactive: endpoint: mean survival time, dose: 50.0 mg/kg/injection, schedule: Q01DX009 (ip), vehicle: saline with Tween-80 101 % of control | [11] 101 % of control | [12] 109 % of control

BrC1CCCCCC12OCCO2 (centres undefined)
inactive: [14] 86 % of control | [15] 94 % of control | [16] 89 % of control

O=C(NCCc1ccccc1)c1ccccc1
inactive: [11] 101 % of control | [12] 107 % of control | [13] 97 % of control

CCOC(=O)C(CCCl)C(=O)OCC
inactive: [9] 104 % of control | [17] 104 % of control | [18] 101 % of control

COC(=O)C(N)CS (centres undefined)
inactive: [14] 101 % of control | [15] 101 % of control | [16] 106 % of control

CCCCCCCCCCCC[N+]1([O-])CCOCC1
inactive: endpoint: mean survival time, dose: 25.0 mg/kg/injection, schedule: Q04DX002 (ip), vehicle: saline with Tween-80 101 % of control | endpoint: mean survival time, dose: 50.0 mg/kg/injection, schedule: Q04DX002 (ip), vehicle: saline with Tween-80 97 % of control | endpoint: mean survival time, dose: 100.0 mg/kg/injection, schedule: Q04DX002 (ip), vehicle: saline with Tween-80 108 % of control

CC1CCCC2(C)CCC(C(C)(C)O)CC12 (centres undefined)
inactive: [9] 103 % of control | [17] 100 % of control | [18] 103 % of control

CC(=O)NC1=C(Sc2ccc(C)cc2)C(=O)c2ccccc2C1=O
inactive: endpoint: mean survival time, dose: 75.0 mg/kg/injection, schedule: Q01DX001 (ip), vehicle: saline 96 % of control | [10] 98 % of control | endpoint: mean survival time, dose: 300.0 mg/kg/injection, schedule: Q01DX001 (ip), vehicle: saline 108 % of control

CC1(C)OC(C(O)COC(=O)c2ccccc2)C(C(O)COC(=O)c2ccccc2)O1 (centres undefined)
inactive: endpoint: mean survival time, dose: 50.0 mg/kg/injection, schedule: Q01DX009 (ip), vehicle: Klucel (hydroxypropylcellulose) (HPC) 98 % of control | endpoint: mean survival time, dose: 100.0 mg/kg/injection, schedule: Q01DX009 (ip), vehicle: Klucel (hydroxypropylcellulose) (HPC) 98 % of control | endpoint: mean survival time, dose: 200.0 mg/kg/injection, schedule: Q01DX009 (ip), vehicle: Klucel (hydroxypropylcellulose) (HPC) 102 % of control

Reference: PubChem BioAssay AID256 (DTP/NCI, 2004)
